Assay results from publication PMC9820279 (International Journal of Molecular Sciences, 2022).
Where two headings read alike, the source gives them in different places. One block for each compound: values may come before it.

Test system: HBMEC monolayer
[1] = matrix ASFE extract 24 µg/mL, 2 h incubation, n.d = not detected in lower compartment
[2] = matrix ASFE extract 24 µg/mL, 4 h incubation, n.d = not detected in lower compartment

Compound: C[C@H]1[C@H](C)CC[C@]2(CO)CC[C@]3(C)C(=CC[C@@H]4[C@@]5(C)CC[C@H](O)C(C)(C)[C@@H]5CC[C@]43C)[C@H]12 (single isomer, unassigned) [Uvaol Isomer II, Uvaol]
Te % (SEM) 2 h (human): 17.7 (1.0) %
Te % (SEM) 4 h (human): 38.3 (0.7) %

Compound: CC1(C)C[C@@H]2C3=CC[C@@H]4[C@@]5(C)CC[C@H](O)[C@@](C)(C=O)C5CC[C@@]4(C)[C@]3(C)CC[C@@]2(C(=O)O)C[C@@H]1O (some centres unmarked) [Lucyin A]
Te % (SEM) 2 h [1]: 7.6 (0.5) %
Te % (SEM) 4 h [2]: 25.3 (0.7) %

Compound: CC(C)=CCC/C(C)=C/CC/C(C)=C/CC/C(C)=C/CO [Geranylgeraniol]
Te % (SEM) 2 h: 30.2 (1.1) %
Te % (SEM) 4 h: 56.6 (3.1) %

Compound: CC1=CC[C@@H](C(C)(C)O)CC1 [L-α-Terpineol]
Te % (SEM) 2 h: 17.6 (1.3) %
Te % (SEM) 4 h: 59.3 (0.4) %

Compound: CCOC(=O)/C=C/c1ccc(O)c(O)c1 [Ethyl caffeate]
Te % (SEM) 2 h: 33.4 (2.4) %
Te % (SEM) 4 h: 35.7 (0.3) %

Compound: C=C1CC[C@H]2O[C@]2(C)CC[C@@H]2[C@@H]1CC2(C)C [Caryophyllene oxide]
Te % (SEM) 2 h: 67.7 (0.9) %

Compound: C=CC(C)(O)CCC=C(C)CCC=C(C)C (mixture of isomers) [Nerolidol]
Te % (SEM) 2 h (human): 30.1 (2.5) %
Te % (SEM) 4 h (human): 59.8 (2.4) %

Compound: C=CC(C)(O)CCCC(C)CCCC(C)CCCC(C)C (centres unmarked) [Isophytol]
Te % (SEM) 2 h: 15.6 (1.0) %
Te % (SEM) 4 h: 58.0 (1.7) %

Compound: O=C(O)C=Cc1ccc(O)cc1 [p-Coumaric acid]
Te % (SEM) 2 h (human): 9.1 (0.6) %
Te % (SEM) 4 h (human): 37.8 (2.5) %

Compound: CC(C)C1CCC2(C)C3CC=C(C=O)C2C13 (centres unmarked) [Ylangenal]
Te % (SEM) 2 h: 32.0 (2.7) %
Te % (SEM) 4 h: 36.9 (0.4) %

Compound: COc1ccc([C@@H]2CC(=O)c3c(O)cc(O)cc3O2)cc1O [Hesperetin]
Te % (SEM) 2 h (human, 2 h, 24 µg/mL): 65.5 (4.8) %
Te % (SEM) 4 h (human, 4 h, 24 µg/mL): 67.2 (3.6) %

Compound: CC[C@H](/C=C/[C@@H](C)[C@H]1CC[C@H]2[C@@H]3CC=C4C[C@@H](O)CC[C@]4(C)[C@H]3CC[C@]12C)C(C)C [Stigmasterol]
Te % (SEM) 2 h (human): 40.4 (2.2) %
Te % (SEM) 4 h (human): 64.5 (0.4) %

Compound: Cc1cc(O)c(C)c2c1O[C@](C)(CCC[C@H](C)CCC[C@H](C)CCCC(C)C)CC2 [β-Tocopherol]
Te % (SEM) 4 h: 15.2 (0.8) %

Compound: CC1(C)C2CCC1(C)C(O)C2 (centres unmarked) [Borneol]
Te % (SEM) 2 h (human, 2 h, 40 µg/mL): 8.5 (0.3) %
Te % (SEM) 4 h (human, 4 h, 40 µg/mL): 35.2 (0.1) %

Te % (SEM) 2 h (human, 2 h, 30 µg/mL): 33.0 (1.9)/39.9 (1.4) %
Te % (SEM) 4 h (human, 4 h, 30 µg/mL): 62.9 (0.3)/67.9(1.3) %
Te % (SEM) 2 h [1]: 33.0 (1.9)/39.9 (1.4) %
Te % (SEM) 4 h [2]: 62.9 (0.3)/67.9(1.3) %
Compound: O=C(O)c1cc(O)c(O)c(O)c1 [Gallic acid]

Compound: O=C(/C=C/c1ccc(O)c(O)c1)OC1[C@H](O)CC(O)(C(=O)O)C[C@H]1O (some centres unmarked) [Caffeoylquinic acid]
Te % (SEM) 2 h: 15.7 (0.4) %
Te % (SEM) 4 h: 74.8 (2.9) %

Compound: O=C(/C=C/c1ccc(O)c(O)c1)O[C@H](Cc1ccc(O)c(O)c1)C(=O)O [Rosmarinic acid]
Te % (SEM) 2 h (human): 41.0 (2.3) %
Te % (SEM) 4 h (human): 90.3 (4.2) %

Compound: O=c1c(O)c(-c2ccc(O)cc2)oc2cc(O)cc(O)c12 [Kaempferol]
Te % (SEM) 2 h (human, 2 h, 24 µg/mL): 31.5 (1.1) %
Te % (SEM) 4 h (human, 4 h, 24 µg/mL): 36.5 (2.2) %

Te % (SEM) 2 h: 14.3 (0.8) %
Te % (SEM) 4 h: 29.0 (0.1) %
Compound: Caffeoylshikimic acid

Te % (SEM) 2 h: 1.9 (0.1) %
Te % (SEM) 4 h: 26.2 (1.0) %
Compound: Tocospiro B

Compound: CC1=CCC2C(C1)C2(C)C (centres unmarked) [3-Carene]
Te % (SEM) 4 h (human, 4 h, 15 µg/mL): 20.3 (0.9) %

Compound: COc1cc(C(=O)O)ccc1O [Vanillic acid]
Te % (SEM) 2 h [1]: 38.9 (1.2) %
Te % (SEM) 4 h [2]: 42.2 (0.7) %

Compound: C[C@@H]1CC[C@@H]2[C@@H]1[C@H]1[C@@H](CC[C@@]2(C)O)C1(C)C [(-)-Globulol]
Te % (SEM) 2 h: 44.1 (3.6) %

Compound: O=C(/C=C/c1ccc(O)c(O)c1)c1ccc(O)cc1O [Butein]
Te % (SEM) 2 h [1]: 27.5 (2.0) %
Te % (SEM) 4 h [2]: 36.3 (2.6) %

Compound: O=C(/C=C/c1ccc(O)cc1)O[C@@H](C(=O)O)[C@@H](O)C(=O)O [Coutaric acid]
Detection / transport to lower compartment (brain side) of HBMEC-BBB model (ASFE extract): not detected in the lower compartment

Compound: C=C[C@]1(C)CC[C@@H](C(C)(C)O)C[C@H]1C(=C)C [Elemol]
Te % (SEM) 2 h: 24.6 (0.5) %
Te % (SEM) 4 h: 25.4 (1.6) %

Compound: C=C(C)[C@@H]1CCC2=CCC[C@@H](C)[C@]2(C)C1 [Valencene]
Te % (SEM) 2 h: 51.9 (4.2) %

Compound: CC1=C[C@@H]2C(=C(C)CC[C@H]2C(C)C)CC1 [δ-Cadinene]
Te % (SEM) 2 h: 21.5 (0.8) %
Te % (SEM) 4 h: 28.9 (2.4) %

Compound: C=C(C)[C@H]1CC=C(C)CC1 [Limonene]
Te % (SEM) 2 h: 33.6 (2.3) %
Te % (SEM) 4 h: 59.3 (2.9) %

Compound: Farnesene
Te % (SEM) 2 h: 46.0 (2.1) %
Te % (SEM) 4 h: 50.9 (3.1) %
